Experimental data reported in US20090181898A1, “ABUSE-RESISTANT A[…]” (SHIRE LLC, priority 2002, published 2009).
Where “and” joins values, the source holds several entries; their conditions need not be identical. Identical values can stand only once. Like-named read-outs stand apart in the source and are kept apart here.

How the values were obtained:
[1] = Pharmacokinetics in male beagle dogs after oral or 30-min intravenous administration, 1 mg/kg (LC/MS/MS); assay type: in vivo; conditions: for AUC(0-t): read-out: AUC0-t of L-lysine-d-amphetamine; for AUC(0-inf): read-out: AUCinf of L-lysine-d-amphetamine; for Cmax: read-out: Cmax of L-lysine-d-amphetamine; for MRT: read-out: MRT of L-lysine-d-amphetamine; for half-life: read-out: t1/2 of L-lysine-d-amphetamine (converted)
Excerpt: This was a non-randomized, two-treatment crossover study. All animals were maintained on their normal diet and were fasted overnight prior to each dose administration. L-lysine-d-amphetamine dose was based on the body weight measured on the morning of each dosing day. The actual dose delivered was based on syringe weight before and after dosing. Serial blood samples were obtained from each animal by direct venipuncture of a jugular vein using vacutainer tubes containing sodium heparin as the anticoagulant. Derived plasma samples were stored frozen until shipment to Quest Pharmaceutical Services, Inc. (Newark, Del.). Pharmacokinetic analysis of the plasma assay results was conducted by Calvert. Animals were treated as follows:
Oral: The test article was administered to each animal via a single oral gavage. On Day 1, animals received the oral dose by gavage using an esophageal tube attached to a syringe. Dosing tubes were flushed with approximately 20 mL tap water to ensure the required dosing solution was delivered.
Intravenous: On Day 8, animals received L-lysine-d-amphetamine as a single 30-minute intravenous infusion into a cephalic vein.
Blood: Serial blood samples (2 mL) were collected using venipuncture tubes containing sodium heparin. Blood samples were taken at 0, 0.25, 0.5, 1, 2, 4, 8, 12, 24, 48, and 72 hours post-oral dosing. […] Collected blood samples were chilled immediately.
Microsoft Excel (Version 6, Microsoft Corp., Redmond, Wash.) was used for calculation of mean plasma concentration and graphing of the plasma concentration-time data. Pharmacokinetic analysis (non-compartmental) was performed using the WinNonlin® software program (Version 4.1, Pharsight, Inc. Mountain View, Calif.). The maximum concentration (Cmax) and the time to Cmax(Tmax) were observed values. The area under the plasma concentration-time curve (AUC) was determined using linear-log trapezoidal rules. The apparent terminal rate constant (λz) was derived using linear least-squares regression with visual inspection of the data to determine the appropriate number of points (minimum of 3 data points) for calculating λz. The AUC0-inf was calculated as the sum of AUC0-t and Cpred/λz, where Cpred was the predicted concentration at the time of the last quantifiable concentration. The plasma clearance (CL/F) was determined as the ratio of Dose/AUC0-inf. The mean residence time (MRT) was calculated as the ratio of AUMC0-inf/AUC0-inf where AUMC0-inf was the area under the first moment curve from the time zero to infinity. The volume of distribution at steady state (Vss) was estimated as CL*MRT. Half-life was calculated as ln 2/λz. The oral bioavailability (F) was calculated as the ratio of AUC0-inf following oral dosing to AUC0-inf following intravenous dosing. Descriptive statistics (mean and standard deviation) of the pharmacokinetic parameters were calculated using Microsoft Excel.
Blood samples were collected up to 24 and 72 hours after the intravenous and oral doses, respectively.

[2] = Clinical steady-state pharmacokinetics, 70 mg capsules once daily for 7 days, healthy adults, fasting
Description: Patients fasted for at least 10 hours before and 4 hours after final dosing. Venous blood samples (7 mL) were drawn into EDTA vacutainers both before medication dosing on days 0, 1, 6, and 7 (in the morning) and at 16 time points (hours 0.5, 1, 1.5, 2, 3, 4, 5, 6, 7, 8, 10, 12, 16, 24, 48, and 72) after final dosing on day 7. Immediately after sample collection, vacutainer tubes were centrifuged at 3000 rpm at 4° C. for 10 minutes; within 1 hour of collection, they were stored at −20° C.

[3] = Oral pharmacokinetics of L-lysine-d-amphetamine diHCl compared to d-amphetamine sulfate (ELISA); conditions: rat; for Plasma concentrations of d-amphetamine, individual animals: 3 mg/kg d-amphetamine base, Rat #1-#4; for Mean plasma d-amphetamine concentration: n=4
[4] = Pharmacokinetics of d-amphetamine in male and female beagle dogs after oral administration, […]; conditions: oral […] d-amphetamine base
[5] = 30 min iv, 1 mg/kg d-amphetamine base, individual dogs, 1 mg/kg
[6] = male, beagle, dog, plasma, iv, 1 mg/kg, 30 min iv, 1 mg/kg d-amphetamine base, individual dogs
[7] = male, beagle, dog, plasma, po, 1 mg/kg, oral, 1 mg/kg d-amphetamine base, individual dogs
[8] = oral, 1 mg/kg d-amphetamine base, individual dogs, 1 mg/kg
[9] = steady state, 70 mg once daily for 7 days, healthy adults, fasting, mean n = 11

In the case of `CC(Cc1ccccc1)NC(=O)C(N)CCCCN` [L-lysine-d-amphetamine, 2,6-diaminohexanoic acid-(1-methyl-2-phenylethyl)-amide], the “AUC0-t of L-lysine-d-amphetamine” value [1, 5] is reported as 1072.3 ng·h/mL and 914.1 ng·h/mL, the “Cmax of L-lysine-d-amphetamine” value [1, 5] is reported as 1826.4 ng/mL and 1654.2 ng/mL and the “MRT of L-lysine-d-amphetamine” value [1, 5] is reported as 19.2 min and 18 min. The “Vss of L-lysine-d-amphetamine” value [1, 5] was 0.6034 L/kg and 0.656 L/kg, the “t1/2 of L-lysine-d-amphetamine” value [1, 5] was 63 min and the “Time by which L-lysine-d-amphetamine fell below the quantifiable limit (1 ng/mL)” value ([1]; IV infusion, post-dose) was “approximately 8 hours”. It also gave an AUC(0-t) [1, 6] of 898 ng·h/mL, an AUC(0-inf) [1, 6] of 900 ng·h/mL and a clearance ([1]; male, beagle, dog, plasma, iv, 1 mg/kg, 30 min iv, 1 mg/kg d-amphetamine base, individual dogs, read-out: CL of L-lysine-d-amphetamine (converted)) of 37 mL/min/kg. For the same compound, the Cmax [1, 6] was 1470 ng/mL, the MRT [1, 6] was 21.6 min and the Vd ([1]; male, beagle, dog, plasma, iv, 1 mg/kg, 30 min iv, 1 mg/kg d-amphetamine base, individual dogs, read-out: Vss of L-lysine-d-amphetamine) was 0.807 L/kg. The half-life [1, 6] was 43.2 min, the AUC(0-t) ([1]; male, beagle, dog, plasma, iv, 1 mg/kg, 30 min iv, 1 mg/kg d-amphetamine base, mean of 3 dogs) was 962 ng·h/mL and the clearance ([1]; male, beagle, dog, plasma, iv, 1 mg/kg, 30 min iv, 1 mg/kg d-amphetamine base, mean of 3 dogs, read-out: CL of L-lysine-d-amphetamine (converted)) was 34.8 mL/min/kg. The clearance ([1]; male, beagle, dog, plasma, iv, 1 mg/kg, IV 30-min infusion, 1 mg/kg, read-out: Mean clearance of L-lysine-d-amphetamine) was 34.8 mL/min/kg, the AUC(0-t) [1, 7] was 368 ng·h/mL and the AUC(0-inf) [1, 7] was 369 ng·h/mL. The CL/F ([1]; male, beagle, dog, plasma, po, 1 mg/kg, oral, 1 mg/kg d-amphetamine base, individual dogs, read-out: CL/F of L-lysine-d-amphetamine (converted)) was 90.4 mL/min/kg, the Cmax [1, 7] was 407 ng/mL and the bioavailability ([1]; male, beagle, dog, plasma, po, 1 mg/kg, oral, 1 mg/kg d-amphetamine base, individual dogs, read-out: F (bioavailability) of L-lysine-d-amphetamine) was 34.3%. For the same compound, the MRT [1, 7] was 44.4 min, the half-life [1, 7] was 28.8 min and the AUC(0-t) ([1]; male, beagle, dog, plasma, po, 1 mg/kg, oral, 1 mg/kg d-amphetamine base, mean of 3 dogs) was 318 ng·h/mL. For the same compound, the “AUC0-t of L-lysine-d-amphetamine” value [1, 8] was 310.8 ng·h/mL and 275.3 ng·h/mL, the “Cmax of L-lysine-d-amphetamine” value [1, 8] was 227.4 ng/mL and 350.2 ng/mL and the “F (bioavailability) of L-lysine-d-amphetamine” value [1, 8] was 34.0% and 30.8%. For the same compound, the “MRT of L-lysine-d-amphetamine” value [1, 8] was 61.8 min and 40.8 min, the “t1/2 of L-lysine-d-amphetamine” value [1, 8] was 27 min and 14.4 min and the “Time within which L-lysine-d-amphetamine was completely eliminated” value ([2]; healthy adults, 70 mg) was no more than 6 h. For the same compound, the Tolerability ([2]; healthy adults, 70 mg, 7 days) was “well tolerated”, the AUC(0-inf) ([2]; human, in vivo, 70 mg) was 61.1 ng·h/mL and the Cmax ([2]; human, in vivo, 70 mg) was 47.9 ng/mL. For the same compound, the Tmax ([2]; human, in vivo, 70 mg) was 68.4 min, the half-life ([2]; human, in vivo, 70 mg) was 25.8 min and the AUC(0-t) ([2]; human, in vivo, 70 mg, AUC0-24 of intact L-lysine-d-amphetamine, steady state, 70 mg once daily for 7 days, healthy adults, fasting, mean n = 11) was 60.7 ng·h/mL. For the same compound, the AUC(0-t) ([2]; human, in vivo, 70 mg, AUC0-t of intact L-lysine-d-amphetamine, steady state, 70 mg once daily for 7 days, healthy adults, fasting, mean n = 11) was 59.4 ng·h/mL, the AUC(0-t) ([2]; human, in vivo, 70 mg, Mean AUC0-24 of intact L-lysine-d-amphetamine, healthy adults, 70 mg once daily, after dose 7) was 60.7 ng·h/mL and the “AUC0-∞ of intact L-lysine-d-amphetamine” value [2, 9] was 61.06 ng·h/mL. The “Cmin of intact L-lysine-d-amphetamine” value [2, 9] was 0.0 ng/mL and the “FI of intact L-lysine-d-amphetamine” value [2, 9] was 1896.06%.
For d-amphetamine, the “AUC (0-8 h) of d-amphetamine” value ([3]; 3 mg/kg) was 341 ± 35 ng·h/mL, the Cmax of d-amphetamine ([3]; 3 mg/kg) was 111 ± 27 ng/mL and the “Mean Peak of d-amphetamine” value ([3]; 3 mg/kg) was 129 ng/mL. For the same compound, the “Mean Peak, Percent Amphetamine” value ([3]; 3 mg/kg) was 100%, the “Plasma concentrations of d-amphetamine, individual animals” value (from here on “Plasma concentrations of d-amphetamine”) ([3]; 0.5 h) was 144 ng/mL and 157 ng/mL and 101 ng/mL and 115 ng/mL and the “Plasma concentrations of d-amphetamine” value ([3]; 1 h) was 152 ng/ml and 78 ng/ml (2×) and 115 ng/ml. The “Plasma concentrations of d-amphetamine” value ([3]; 3 h) was 34 ng/mL and 45 ng/mL and 72 ng/mL and 38 ng/mL, the “Plasma concentrations of d-amphetamine” value ([3]; 5 h) was 20 ng/mL and 14 ng/mL and 12 ng/mL and 15 ng/mL and the “Plasma concentrations of d-amphetamine” value ([3]; 8 h) was 3 ng/ml (2×) and 2 ng/ml (2×). For the same compound, the “Mean plasma d-amphetamine concentration” value ([3]; 3 mg/kg, 0.5 h) was 129 ng/mL, the “Mean plasma d-amphetamine concentration” value ([3]; 3 mg/kg, 1 h) was 106 ng/mL and the “Mean plasma d-amphetamine concentration” value ([3]; 3 mg/kg, 3 h) was 47 ng/mL. For the same compound, the “Mean plasma d-amphetamine concentration” value ([3]; 3 mg/kg, 5 h) was 15 ng/mL, the “Mean plasma d-amphetamine concentration” value ([3]; 3 mg/kg, 8 h) was 2 ng/mL and the Tmax of d-amphetamine ([4]; Females) was 60 min. The “Tmax of d-amphetamine, Percent (of Amp)” value ([4]; Females) was 100%, the Tmax of d-amphetamine ([4]; Males) was 60 min and the “Tmax of d-amphetamine, Percent (of Amp)” value ([4]; Males) was 100%.
